Reference: patent publication US20110287100A1, “Galenic Formulations of Organic Compounds” (priority 2009, published 2011)
Where two headings read alike, the source gives them in different places.

Assays:
[1] = Pharmacokinetics in pediatric patients, open label multiple dose study; conditions: human, in vivo; for AUC: read-out: AUCtau, Mean; for Tmax: read-out: Tmax, Median; for half-life: read-out: T½, Mean (converted)
Experimental: An open label, multiple dose pharmacokinetic and pharmacodynamic study was performed in 24 pediatric patients, ages 6-17 years. […] Blood samples were collected on days one and eight and pharmacokinetics were assessed using a non-compartmental analysis approach.

Water solubility = type: physicochemical; conditions: between pH 1 and 8
[2] = 2 mg/kg, 6-11 yrs old, 2 mg/kg, Day 1
[3] = 2 mg/kg, 6-11 yrs old, 2 mg/kg, Day 8
[4] = 2 mg/kg, 12-17 yrs old, 2 mg/kg, Day 1
[5] = 2 mg/kg, 12-17 yrs old, 2 mg/kg, Day 8
[6] = 6 mg/kg, 6-11 yrs old, 6 mg/kg, Day 1
[7] = 6 mg/kg, 6-11 yrs old, 6 mg/kg, Day 8
[8] = 6 mg/kg, 12-17 yrs old, 6 mg/kg, Day 1
[9] = 6 mg/kg, 12-17 yrs old, 6 mg/kg, Day 8

COCCCOc1cc(C[C@@H](C[C@H](N)[C@@H](O)C[C@H](C(=O)NCC(C)(C)C(N)=O)C(C)C)C(C)C)ccc1OC [Aliskiren, 2(S),4(S),5(S),7(S)—N-(3-amino-2,2-dimethyl-3-oxopropyl)-2,7-di(1-methylethyl)-4-hydroxy-5-amino-8-[4-methoxy-3-(3-methoxy-propoxy)phenyl]-octanamide]
Cmax [1, 2]: 0.039 µg/mL
AUC [1, 2]: 0.149 µg·h/mL
Tmax [1, 2]: 0.5 h
Cmax [1, 3]: 0.048 µg/mL
AUC [1, 3]: 0.24 µg·h/mL
Tmax [1, 3]: 0.5 h
half-life [1, 3]: 40 h
Cmax [1, 4]: 0.136 µg/mL
AUC [1, 4]: 0.391 µg·h/mL
Tmax [1, 4]: 1 h
Cmax [1, 5]: 0.279 µg/mL
AUC [1, 5]: 0.846 µg·h/mL
Tmax [1, 5]: 1 h
half-life [1, 5]: 40 h
Cmax [1, 6]: 0.323 µg/mL
AUC [1, 6]: 1.84 µg·h/mL
Tmax [1, 6]: 1.3 h
Cmax [1, 7]: 0.259 µg/mL
AUC [1, 7]: 0.956 µg·h/mL
Tmax [1, 7]: 0.8 h
half-life [1, 7]: 36 h
Cmax [1, 8]: 0.424 µg/mL
AUC [1, 8]: 1.8 µg·h/mL
Tmax [1, 8]: 1.8 h
Cmax [1, 9]: 0.486 µg/mL
AUC [1, 9]: 2.09 µg·h/mL
Tmax [1, 9]: 2 h
half-life [1, 9]: 42 h
solubility (Water solubility): > 350 mg/mL
